Measured values from patent publication US20190247396A1, “DENTAL TREATMENT” (KING'S COLLEGE LONDON, priority 2016, published 2019).
“Also recorded” adds a separate entry of the source.

Key:
[1] = system: mouse maxillary first molars; conditions: in vivo
Procedure: (§3) To test the induction of Axin2 in vivo, an injury model was developed. Mice were anaesthetized with a solution of Hypnorm (Fentanyl/fluanisone—VetaPharma Ltd.), water and Hypnovel (Midazolam—Roche) in the ratio 1:2:1 at 10 ml/kg by an intraperitoneal injection. Experimental tooth damage was created by drilling and making 0.13 mm holes in mouse maxillary first molars to expose the pulp. A rounded carbide bur FG ¼ coupled to a high speed hand piece was used to access the dentine. Once the bur cut exposed the dentine, a 30G needle was used to penetrate the pulp.
(§4) In order to protect the pulp from external contamination and stimulate dentine repair, the injury was capped either with ProRoot Mineral Trioxide Aggregate (MTA) (Maillfer Dentsply), or Kolspon (Fish Collage Type 1—Eucare Ltd) alone, or in association with 50 nM BIO (SIGMA), 5 μM CHIR99021 (SIGMA), or 50 nM Tideglusib (SIGMA) dissolved and diluted in DMSO, in contact with the pulp. Pieces of Kolspon were cut to size and soaked in solutions of the three inhibitors before being physically placed into the holes, in contact with the pulp.
(§5) The model described in Example 2 was then used to examine the effect on the formation of reparative dentine. Molars were drilled and sponges inserted and left as described in Example 2, this time for 4-6 weeks before the mice were sacrificed.
(§6) After 4 weeks decalcification in 19% EDTA the teeth were embedded in wax blocks and sectioned using 0.8 μm thickness. Sections were stained using Masson's Trichrome to reveal new dentine formation.

[2] = system: Axin2 (Wnt activity) in dental pulp cells; assay: Induction of Axin2 in vivo, pulp exposure injury model, qPCR of pulp cells; set-up: species or system mouse; conditions: one day after injury and capping; vs control, MTA or collagen sponge
Procedure: A glass ionomer cement was used to cover the sponge and protect the tooth (FIG. 2G). Specifically, a layer of 3M Ketac-Cem Radiopaque was used as a capping material to seal the injured site. The injury was performed on the two upper first molars. Post-op the mice were given Vetergesic (Buprenorphine—Ceva) at the rate of 0.3 mg/kg intraperitonially as analgesic. The animals were sacrificed after 1 day.
Treated teeth were removed after 24 h along with controls consisting of untreated teeth, MTA only and collagen sponge with no inhibitor.
Molars were extracted using a 21G needle as an elevator to lift them from the alveolar bone and kept in ice cold PBS. Using a 23 scalpel blade the molars were separated at the crown-root junction, so that the pulp chamber could be visualized. Using a 0.6 mm straight tip tweezer the pulp was gently scraped from the pulp chamber and the root canal. The pulp was then placed into cold Sigma RNAlater and stored at −80° C.
The extracted cells were tested for expression of Axin2 by qPCR as described in Example 1 (FIG. 1E). Expression of Axin2 was 3× higher in inhibitor treated pulp cells when compared to controls (FIG. 1E).

[3] = system: mouse maxillary first molars; assay: Reparative dentine formation after pulp exposure, micro-CT mineral analysis; assay type: in vivo
Procedure: T filled with mineral=0.0017 mg.

[4] = system: Axin2 (Wnt activity) in 171A4 mouse dental pulp cells; assay: In vitro drug release from Kolspon sponge, Axin2 qPCR; assay type: cell-based; conditions: for Wnt activity (Axin2 qPCR): drug in collagen sponge incubated with cells, 50 nM BIO, 50 nM Tideglusib, vs media or sponge without drug
Procedure: In vitro drug release from Kolspon sponge was tested. 171A4 cells were plated in 24-well plates and incubated (37° C., 5% CO2/95% air, 100% humidity) for 24 h using standard culture medium. Falcon™ cell culture inserts for use with 24-well plates ([…]) were placed in the wells carrying 96 mm^2 Kolspon cubes either dry or soaked in 30 μl of the drug optimal concentration for 15 and 30 minutes, 1, 6, and 12 hours. The cells were collected with TRIzol and stored at −20° C.
RNA was extracted from the cells using TRIzol (Thermo Fisher Scientific) as recommended by the manufacturer. RNA was quantified using Nanodrop and reverse transcribed into cDNA. Beta-actin was used as housekeeping gene (Forward-[…] (SEQ ID NO 1), Reverse-[…]) (SEQ ID NO 2) and Axin2 for Wnt activity (Forward-[…] (SEQ ID NO 3), Reverse- TGCCCACACTAGGCTGACA (SEQ ID NO 4).

[5] = system: mouse maxillary first molars; assay: Reparative dentine formation after pulp exposure, Masson's Trichrome histology
Procedure: as §3, §4, §5, §6

[6] = system: human deciduous tooth dental pulp cells; conditions: cited from earlier work
[7] = system: mouse maxillary first molars; assay: Reactionary dentine formation, non-exposed pulp injury model, Masson's Trichrome histology; conditions: for Structure of reactionary dentine (histology): 4 weeks after injury without pulp exposure
Procedure: (§1) To investigate the effect of modulation of Wnt signaling on reactionary dentine formation, a reproducible tooth damage model was established. 6 weeks old, Axin2^−CreERT2; Rosa26−mTmG (fl/+) and GPR1777(Wntless)^−pCAGCreERT2 (fl/fl) mice were injected intraperitoneally with three doses of tamoxifen (2 mg per 30 g mouse, SIGMA), one dose a day. 5 days after the last tamoxifen injection, the height of the middle cusp of mouse maxillary first molars were reduced without exposing the dental pulp, leaving a band of dentine to protect the inner pulp tissue (FIG. 5).
The exposed dentine was capped either with calcium hydroxide (Dycal; Dentsply) or mineral trioxide aggregate (MTA) (ProRoot MTA; Dentsply), or dry collagen sponge (Kolspon-Fish Collage Type 1; Eucare Ltd), or collagen sponge soaked in dimethyl sulfoxide (DMSO; SIGMA), or 50 nM Tideglusib, or 1 μM LY2157299, or 1 μM Dorsomorphin. All drugs were dissolved and diluted in DMSO. A layer of glass ionomer cement (Ketac-Cem Radiopaque; 3M ESPE) was used as a sealing material. Vetergesic (Buprenorphine—Ceva) was injected to all mice post-operative at the rate of 0.3 mg/kg by intraperitoneal injection as analgesic. The animals were sacrificed after 1 day and 4 weeks. A total of 14 genetically-modified mice (28 damaged molars) and 26 CD1 mice (52 molars) were used.
After 4 weeks decalcification in 19% EDTA pH 6, the teeth were embedded in wax blocks and sectioned at 8 μm thickness. Sections were histologically stained using Masson's Trichrome.
Sequestered latent BMP and TGF-β proteins present in the dentine matrix have been implicated in tertiary dentine formation following damage, mainly based on results obtained from in vitro experiments. The effect of inhibition of these signalling pathways in was investigated in the in vivo model of reactionary dentine formation described in Example 5 by utilising small molecules to inhibit these signalling pathways. The small molecule LY2157299 is a TGF-β type I receptor kinase inhibitor and the small molecule Dorsomorphin is an inhibitor of BMP type I receptors ALK2, ALK3 and ALK6 (Bhola et al. 2013, Yu et al. 2008). Both compounds were first tested for cytotoxicity and effectiveness of signalling pathway blocking in vitro using 17IA4 cells. The first upper molars of CD1 mice were damaged to stimulate reactionary dentine formation and a collagen sponge was soaked in either 1 μM LY2157299 or 1 μM Dorsomorphin was used as a delivery vehicle. The sponges were placed on the exposed dentine and sealed with a layer of glass ionomer.

[8] = system: mouse maxillary first molars; assay: Reactionary dentine formation, non-exposed pulp injury model, micro-CT mineral content and linear measurement; assay type: in vivo; conditions: 50 nM, 4 weeks
Procedure: as §1
The exposed dentine was capped either with calcium hydroxide (Dycal; Dentsply) or mineral trioxide aggregate (MTA) (ProRoot MTA; Dentsply), or dry collagen sponge (Kolspon-Fish Collage Type 1; Eucare Ltd), or collagen sponge soaked in dimethyl sulfoxide (DMSO; SIGMA), or 50 nM Tideglusib, or 1 μM LY2157299, or 1 μM Dorsomorphin. All drugs were dissolved and diluted in DMSO. […]
Mice upper molars were dissected, fixed in 4% paraformaldehyde (PFA) for 24-hours at 4° C. and scanned using a Bruker Skyscan1272 micro-CT (pCT) scanner. […] The dentine thickness was measured using the “Line” function of the software. For the dentine thickness-analysis the distance between the center of the roof of the middle pulp horn and the floor of the injured dentine margin was measured. […] The region measured comprised only the site of injury. […]

[9] = system: TCF/Lef:H2B-GFP and Axin2-CreERT2 Wnt responsive cells; assay: GFP immunohistochemistry of Wnt responsive cells in reporter mice 1 day after injury; assay type: in vivo, mouse
Text: (§2) Since Wnt/β-catenin signaling is required for reparative dentine formation we investigated if this pathway plays a role in reactionary dentine formation. The small molecule GSK3 antagonist Tideglusib was delivered on collagen sponges at the site of damage and sealed with glass ionomer. Sponge alone and MTA sealed with glass ionomer were used as controls. To identify whether cells responded to the drug, TCF/Lef:H2B-GFP, Axin2^−CreERT2; Rosa26−mTmG flox/+ and CD1 wild type mice were used. TCF/Lef:H2B-GFP reporter mice allowed the visualisation of Wnt active cells (ie. Cells receiving a Wnt signal), Axin2^−CreERT2; Rosa26−mTmG flox/+ mice were used to lineage trace Axin2-expressing cells and gene expression analysis via qPCR (as described in Example 1) was performed on pulp cells from CD1 mouse molars. The first molars of genetically modified mice were collected 1 day after the injury and immunohistochemistry was performed. Deparaffinised sections were retrieved with sodium citrate (pH 6) and incubated with chicken polyclonal anti-GFP antibody (1:500; Abcam, Cambridge, Mass., USA; ab13970) overnight at 4° C. Sections were washed and exposed to appropriate biotinylated secondary antibody, then horseradish peroxidase (HRP)-conjugated streptavidin-biotin antibody and washed with PBST. Immunoreactivity was visualized with MenaPath green chromogen kit (Bio SB). […]

[10] = system: Axin2 (Wnt activity) in dental pulp; assay: Axin2 qPCR of dental pulp one day after dentine injury without pulp exposure; assay type: in vivo, mouse
Procedure: All drugs were dissolved and diluted in DMSO.
as §2, with “PBST.” for “PBST. Immunoreactivity was visualized with MenaPath green chromogen kit (Bio SB).”

Row | Compound | Pulp vitality [1] | Wnt activity / Axin2 expression (qPCR) in dental pulp cells [2] | MicroCT appearance of injury site ([3]; 4 weeks) | MicroCT appearance of injury site ([3]; 6 weeks) | BIO induction of Axin2 expression relative to CHIR99021 and Tideglusib ([4]; FIG. 1D) | Wnt activity (Axin2 qPCR) [4] | Histology of reparative dentine formation ([5]; 4 weeks) | Histology of reparative dentine formation ([5]; 6 weeks) | Differentiation state of dental pulp cells [6] | Proliferation of dental pulp cells [6] | Structure of reactionary dentine (histology) [7] | Mineral band thickness at the site of injury (linear measurement) vs collagen sponge alone ([8]; FIG. 9E) | Mineral content under the injury site (micro-CT) ([8]; vs collagen sponge alone, FIG. 9D) | Axin2+ (GFP-positive) cells in the dental pulp ([9]; Axin2-CreERT2, Rosa26-mTmG mice, vs collagen sponge only) | Wnt responsive (TCF/LEF+, GFP) cells under the injury ([9]; TCF/Lef:H2B-GFP reporter mice, vs collagen sponge alone) | Amount of reactionary dentine formation (histology) compared with controls ([7]; 50 nM in collagen sponge, 4 weeks) | Pulp / tooth vitality ([7]; mouse, in vivo) | Wnt activity / early-response Axin2 expression (qPCR) ([10]; 1 day after injury without pulp exposure) | Axin2 expression compared to controls ([10]; 1 day after injury, FIG. 8E)
1 | O=C1Nc2cc(Br)ccc2/C1=C1/Nc2ccccc2/C1=N\O [BIO, 6-bromoindirubin-3′-oxime] | dental pulp remained vital | significant upregulation of Wnt activity | mature mineral at the injury site | injury site filled with mature dentine | 4 × | Wnt activity increases after 30 minutes of incubation and remains elevated | dense dentine formation at the injury site with vital pulp | filled the whole injury site from occlusal to pulp chamber roof; also recorded: new mature dentine formed where the sponge was placed filling the injury site | maintain human deciduous tooth dental pulp cells in the undifferentiated state | reduce proliferation |  |  |  |  |  |  |  |  | 
2 | Cc1cccc(-c2nn3c(c2-c2ccnc4ccc(C(N)=O)cc24)CCC3)n1 [LY2157299] |  |  |  |  |  |  |  |  |  |  | disorganised (globular) dentine; also recorded: atypical globular dentine without tubular reactionary dentine features |  |  |  |  |  |  |  | 
3 | O=c1sn(-c2cccc3ccccc23)c(=O)n1Cc1ccccc1 [Tideglusib, 4-Benzyl-2—(naphthalen-1-yl)-[1,2,4]thiadiazolidine-3,5-dione] | dental pulp remained vital | significant upregulation of Wnt activity | mature mineral at the injury site | mature reparative dentine formed at the injury site almost at the same Radiopacity as the primary/secondary dentine |  | Wnt activity increases after 30 minutes of incubation and remains elevated | dense dentine formation at the injury site with vital pulp | filled the whole injury site from occlusal to pulp chamber roof; also recorded: complete repair with vital dental pulp |  |  | normal tubular reactionary dentine formation | thicker mineral band | high mineral content; also recorded: increase of mature mineral formation | increase of TCF/LEF+cells and Axin2+ cells; also recorded: more GFP-positive cells | increase of TCF/LEF+cells; also recorded: increased local response to Wnt signalling | larger reactionary dentine secretion; also recorded: enhanced reactionary dentine formation | dental pulp remained vital | significant upregulation of Wnt activity | 2 fold
